This note sets out measurements from patent US10202347B2, “Compound, production method therefor, and use of said compound” (MICROBIAL CHEMISTRY RESEARCH FOUNDATION, priority 2013, dated 2019).

Data set [1] concerns human stomach cancer cells MKN-74. Description: Cell proliferation test, monoculture test (GFP fluorescence). It counts as cell-based. As to the method: Human stomach cancer cells MKN-74 (Riken Cell Bank) were cultured at 37° C. and 5% CO2 in DMEM supplemented with 10% FBS (product of GIBCO Co.), 100 units/mL penicillin G (product of Invitrogen Co.), and 100 μg/mL streptomycin (product of Invitrogen Co.).
The above cancer cells were allowed to undergo gene transfer of Green fluorescence protein (GFP) expression vector, pEGFP-C1 (product of BD Biosciences Co.) using the Lipofectamine reagent (product of Invitrogen Co.), to thereby clone cells stably expressing GFP.
Only DMEM containing 1% dialyzed serum, 5 μg/mL insulin, 5 μg/mL transferrine (product of Wako Pure Chemical Industries Co.), and 1.4 μM hydrocortisone (product of Sigma Co.) was placed in a 96-well plate at 0.1 mL/well, and respective evaluation samples (the compounds expressed by Structural Formulas (1) to (13)) were added thereto at respective concentrations, followed by maintaining at 37° C. and 5% CO2 for 2 days.
Next, the above human stomach cancer cells MKN-74 were dispersed in DMEM at 5×10^5 cells/mL, and were placed in the above plate at 10 μL/well, followed by further coculturing at 37° C. and 5% CO2 for 3 days.
Measurement of cell proliferation rates in the above coculture test and monoculture test was performed in the following manner.
The medium was removed from the wells of the above plate, and a cytolysis liquid (10 mM Tris-HCl [pH 7.4], 150 mM NaCl, 0.9 mM CaCl2, and 1% Triton X-100) was added thereto at 0.1 mL/well to lyse the cells. The fluorescence intensity of GFP was measured at an excitation wavelength of 485 nm and a fluorescence wavelength of 538 nm, and the cell proliferation rates were calculated from the following formula. Cell proliferation rate (%)=(Fluorescence intensity in the presence of the evaluation sample/Fluorescence intensity in the absence of the evaluation sample)×100

Data set [2] can be described thus: Acute toxicity test (maximum tolerated dose). The conditions noted are these: female, ICR, mouse, in vivo, iv. The text has this: ICR mice (female, 4 weeks old, product of Charles River Co.) were bred under the SPF conditions.
One half of the administration dose at which the mice were recognized to be dead or have serious toxicity for the observation period of 2 weeks was defined as the maximum tolerated dose (MTD) in the present experiment.

The subject of data set [3] is Helicobacter pylori JCM12093 strain. As to the kind of experiment: Measurement of MIC for Helicobacter pylori JCM12093. It is filed as cell-based. The conditions noted are these: for MIC: Helicobacter pylori, read-out: MIC Helicobacter pylori JCM 12093; for anti-Helicobacter pylori activity (in words): summary of Table 3, H. pylori JCM12093 and JCM12095 strains. The procedure: Each of the above compounds was measured for minimum inhibitory concentration (MIC) for Helicobacter pylori.
Helicobacter pylori JCM12093 strain and H. pylori JCM12095 strain each were statically cultured in a HP medium (brain heart infusion broth (product of Becton, Dickinson Co.) supplemented with 10% fetal bovine serum (product of Life Technologies Co.)) for 144 hours at 37° C. under microaerobic culture conditions (microaerobic conditions (N2:O2:CO2=85:5:10)).
After completion of the culturing, the culture was suspended with the HP medium and diluted so that Helicobacter pylori was 2×10^6 CFU/mL to 9×10^6 CFU/mL.
Each of the test samples (each of the above compounds, clarithromycin, and ampicillin) was prepared with the HP medium to have a concentration of 256 mg/L. From this concentration, the test sample was 2-fold diluted serially in 15 steps to 0.0078 mg/L.
The above-diluted culture was added at 50 μL/well to 50 μL/well of the HP medium containing each of the test samples at the above concentrations, and was statically cultured for 144 hours at 37° C. under microaerobic culture conditions (microaerobic conditions (N2:O2:CO2=85:5:10)). After completion of the culturing, the presence or absence of proliferation of each bacterium was visually determined based on turbidity, and the MIC for each bacterial strain was obtained.

Data set [4] deals with Staphylococcus aureus FDA209P strain. As to the kind of experiment: Measurement of MIC for Staphylococcus aureus. It is filed as cell-based. The conditions noted are these: read-out: MIC Staphylococcus aureus FDA209P. The procedure:
Each of the above compounds was measured for minimum inhibitory concentration (MIC) for Staphylococcus aureus and Escherichia coli.
Staphylococcus aureus FDA209P strain and Escherichia coli K-12 strain each were cultured under shaking in a nutrient broth medium (polypeptone (product of NIHON PHARMACEUTICAL Co.) 1%, fish extract for bacteria (product of KYOKUTO PHARMACEUTICAL INDUSTRIAL Co.) 1%, and sodium chloride 0.2%) at 37° C. overnight.
After completion of the culturing, the culture was diluted with the nutrient broth medium so that the bacteria were 2×10^6 CFU/mL to 9×10^6 CFU/mL.
Each of the test samples (each of the above compounds, clarithromycin, and ampicillin) was prepared with the nutrient broth medium to have a concentration of 256 mg/L. From this concentration, the test sample was 2-fold diluted serially in 11 steps to 0.125 mg/L.
The above-diluted culture was added at 50 μL/well to 50 μL/well of the nutrient broth medium containing each of the test samples at the above concentrations, and was statically cultured at 37° C. overnight. After completion of the culturing, the presence or absence of proliferation of each bacterium was visually determined based on turbidity, and the MIC for each bacterial strain was obtained.

The subject of data set [5] is Enterococcus faecalis JCM5803 strain. As to the kind of experiment: Measurement of MIC for Enterococcus faecalis. It is filed as cell-based. The conditions noted are these: read-out: MIC Enterococcus faecalis JCM5803. The procedure: Each of the above compounds was measured for minimum inhibitory concentration (MIC) for Enterococcus faecalis.
Enterococcus faecalis JCM5803 strain was cultured under shaking in a heart infusion broth medium (product of Becton, Dickinson Co.) at 37° C. overnight.
After completion of the culturing, the culture was diluted with the heart infusion broth medium so that the bacteria were 2×10^4 CFU/mL to 9×10^4 CFU/mL.
Each of the test samples (each of the above compounds, clarithromycin, and ampicillin) was prepared with the heart infusion broth medium to have a concentration of 256 mg/L. From this concentration, the test sample was 2-fold diluted serially in 11 steps to 0.125 mg/L.
The above-diluted culture was added at 50 μL/well to 50 μL/well of the heart infusion broth medium containing each of the test samples at the above concentrations, and was statically cultured at 37° C. for 18 hours.
After completion of the culturing, the presence or absence of proliferation of each bacterium was visually determined based on turbidity, and the MIC for each bacterial strain was obtained.

[6] abbreviates: monoculture test, MKN-74 alone, cell proliferation rate, average of duplicate, read-out: Mono IC50.
Setting [7] is: JCM12093, HP medium, 144 hours, 37° C., microaerobic.
Setting [8] is: nutrient broth medium, 37° C. overnight.
Setting [9] is: JCM5803, heart infusion broth medium, 37° C., 18 hours.
Where [10] appears, read: intravenous administration, ICR mice, observed for 2 weeks, one half of the dose with death or serious toxicity, read-out: MTD.

Each structure is given as a SMILES string. Like-named read-outs stand apart in the source and are kept apart here.

Take `CCCCCCCCc1nc2ccccc2c(OCC(=O)O)c1C` [Structural Formula (2)]: in data set [1] (setting [6]), the IC50 worked out at 2.95 µg/mL. Further, the MTD at 2 weeks in data set [2] (MTD) is at least 50 mg/kg. Besides, the MIC in data set [3] (setting [7]) is 1 µg/mL; in data set [4] (setting [8]), over 128 µg/mL; in data set [5] (setting [9]), over 128 µg/mL.
As for `CCCCCCCCc1c(C)c(=O)c2ccccc2n1CC(=O)O` [Structural Formula (6)], the IC50 in data set [1] (setting [6]) came out at 71 µg/mL. The same molecule returned an MTD at 2 weeks in data set [2] (MTD) of at least 50 mg/kg. For the same molecule, the minimal inhibitory concentration (MIC) in data set [3] (setting [7]) was 1 µg/mL; in data set [4], 128 µg/mL; in data set [5] (setting [9]) it was over 128 µg/mL.
For `CCCCCCCc1c(C)c(=O)c2ccccc2n1CN=C=S` [Structural Formula (11)], the concentration for half-maximal inhibition (IC50) in data set [1] (setting [6]) worked out at 89.5 µg/mL. In data set [2] (setting [10]), the maximum tolerated dose (MTD) at 2 weeks was 6.25 mg/kg. Also, the MIC was 0.016 µg/mL in data set [3] (setting [7]); 4 µg/mL in data set [4] (setting [8]); over 128 µg/mL in data set [5] (JCM5803, 18 h). In data set [3], the “anti-Helicobacter pylori activity (in words)” value is on record as “exhibited anti-Helicobacter pylori activity at low concentrations”.
As for `Cc1c(CCCC/C=C/C(C)C)[nH]c2ccccc2c1=O` [Structural Formula (3)], in data set [1] (setting [6]), the IC50 was over 100 µg/mL. In addition, the MTD at 2 weeks in data set [2] (setting [10]) turned out to be 1.56 mg/kg. Besides, the MIC in data set [3] (setting [7]) is 0.008 µg/mL; in data set [4] it was over 128 µg/mL; in data set [5] (setting [9]), over 128 µg/mL. Besides, in data set [3], the “anti-Helicobacter pylori activity (in words)” value is given as “exhibited anti-Helicobacter pylori activity at low concentrations”.
`CCCCCCCc1c(C)c(=O)c2ccccc2n1CN=C(SC)SC` [Structural Formula (13)]: in data set [1] (MKN-74, read-out: Mono IC50), the IC50 was found to be 1.36 µg/mL. Further, the MTD at 2 weeks in data set [2] (setting [10]) is at least 50 mg/kg. Besides, the MIC is 2 µg/mL in data set [3] (JCM12093, 144 h); 4 µg/mL in data set [4]; over 128 µg/mL in data set [5] (setting [9]).
Regarding `Cc1c(CC(C)C)[nH]c2ccccc2c1=O` [Structural Formula (4)], the IC50 in data set [1] (setting [6]) is over 100 µg/mL. In data set [2] (MTD), this molecule gave an MTD at 2 weeks of 25 mg/kg. For the same molecule, the MIC in data set [3] (setting [7]) was 0.5 µg/mL; in data set [4], 128 µg/mL; in data set [5] (setting [9]), over 128 µg/mL.
The corresponding values for `CCCCCCCCc1c(C)c(=O)c2ccccc2n1CC(=O)OC` [Structural Formula (5)] are over 100 µg/mL, 6.25 mg/kg, 2 µg/mL, over 128 µg/mL and over 128 µg/mL.
As for `CCCCCCCc1c(C)c(=O)c2ccccc2n1CNC(=S)SC` [Structural Formula (12)], the IC50 in data set [1] (MKN-74, read-out: Mono IC50) was 39.5 µg/mL. The MTD at 2 weeks in data set [2] (setting [10]) is at least 50 mg/kg. Further, the MIC in data set [3] (JCM12093, 144 h) was 0.03 µg/mL; in data set [4] it was over 128 µg/mL; in data set [5] (setting [9]), over 128 µg/mL. For the same molecule, the “anti-Helicobacter pylori activity (in words)” value in data set [3] is “exhibited anti-Helicobacter pylori activity at low concentrations”.
